PubChem BioAssay AID248 (DTP/NCI, 2004)
Values joined by “and” are separate entries in the source; they are usually repeats but may differ in a detail not shown here. Equal values may be shown once. Toxic doses and inconclusive results are not listed. Cut-off read from the data, not from the text of the source: active = T/C of 150% or more; inactive = T/C below 125%.

System: L1210 leukemia ip in BDF1 mice, survival T/C
Test: NCI In Vivo Anticancer Drug Screen. Data for tumor model L1210 Leukemia (intraperitoneal) in B6D2F1 (BDF1) mice
Settings: endpoint: mean survival time, higher = longer survival
Summary of the method: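 Mice bearing the transplanted tumor received compound or vehicle. Survival of the treated group was divided by that of the vehicle-treated control group to give the ratio.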

[1] = dose: 100.0 mg/kg/injection, schedule: Q04DX002 (ip), vehicle: Klucel (hydroxypropylcellulose) (HPC)
[2] = dose: 200.0 mg/kg/injection, schedule: Q04DX002 (ip), vehicle: Klucel (hydroxypropylcellulose) (HPC)
[3] = dose: 100.0 mg/kg/injection, schedule: Q01DX009 (ip), vehicle: saline
[4] = dose: 100.0 mg/kg/injection, schedule: Q04DX003 (ip), vehicle: saline
[5] = dose: 200.0 mg/kg/injection, schedule: Q01DX009 (ip), vehicle: saline
[6] = dose: 200.0 mg/kg/injection, schedule: Q04DX003 (ip), vehicle: saline
[7] = dose: 400.0 mg/kg/injection, schedule: Q01DX009 (ip), vehicle: saline
[8] = dose: 400.0 mg/kg/injection, schedule: Q04DX003 (ip), vehicle: saline
[9] = dose: 100.0 mg/kg/injection, schedule: Q01DX001 (ip), vehicle: other
[10] = dose: 200.0 mg/kg/injection, schedule: Q01DX001 (ip), vehicle: other
[11] = dose: 400.0 mg/kg/injection, schedule: Q01DX001 (ip), vehicle: other
[12] = dose: 100.0 mg/kg/injection, schedule: Q01DX009 (ip), vehicle: saline with Tween-80
[13] = dose: 100.0 mg/kg/injection, schedule: Q04DX003 (ip), vehicle: saline with Tween-80
[14] = dose: 200.0 mg/kg/injection, schedule: Q01DX009 (ip), vehicle: saline with Tween-80
[15] = dose: 200.0 mg/kg/injection, schedule: Q04DX003 (ip), vehicle: saline with Tween-80
[16] = dose: 400.0 mg/kg/injection, schedule: Q04DX003 (ip), vehicle: saline with Tween-80
[17] = dose: 100.0 mg/kg/injection, schedule: Q01DX009 (ip), vehicle: Klucel (hydroxypropylcellulose) (HPC)
[18] = dose: 200.0 mg/kg/injection, schedule: Q01DX009 (ip), vehicle: Klucel (hydroxypropylcellulose) (HPC)
[19] = dose: 200.0 mg/kg/injection, schedule: Q01DX001 (ip), vehicle: saline
[20] = dose: 400.0 mg/kg/injection, schedule: Q01DX001 (ip), vehicle: saline
[21] = dose: 100.0 mg/kg/injection, schedule: Q01DX001 (ip), vehicle: saline
[22] = dose: 100.0 mg/kg/injection, schedule: Q04DX003 (ip), vehicle: Klucel (hydroxypropylcellulose) (HPC)
[23] = dose: 200.0 mg/kg/injection, schedule: Q04DX003 (ip), vehicle: Klucel (hydroxypropylcellulose) (HPC)
[24] = dose: 50.0 mg/kg/injection, schedule: Q01DX009 (ip), vehicle: saline

Measured: T/C

CC(C)(C)c1ccc(S(=O)(=O)c2ccc(C(C)(C)C)c([N+](=O)[O-])c2)cc1[N+](=O)[O-]
inactive: [1] 101 % of control | [2] 92 % of control | dose: 400.0 mg/kg/injection, schedule: Q04DX002 (ip), vehicle: Klucel (hydroxypropylcellulose) (HPC) 105 % of control

Nc1ccc(C(=O)O)c([N+](=O)[O-])c1
inactive: [3] 102 % of control | [4] 98 % of control | [5] 100 % of control | [6] 93 % of control | [7] 100 % of control | [8] 94 % of control

CC(=O)c1nnn(-c2ccccc2)n1
inactive: [9] 95 % of control and 109 % of control | [10] 95 % of control and 101 % of control | [11] 101 % of control

O=Cc1ccc([N+](=O)[O-])s1
inactive: [12] 101 % of control | [13] 102 % of control | [14] 97 % of control | [15] 110 % of control | dose: 400.0 mg/kg/injection, schedule: Q01DX009 (ip), vehicle: saline with Tween-80 101 % of control | [16] 121 % of control

CS(=O)(=O)c1nnc(-c2ccccc2)s1
inactive: dose: 50.0 mg/kg/injection, schedule: Q01DX009 (ip), vehicle: saline with Tween-80 93 % of control | [17] 97 % of control | [12] 96 % of control and 90 % of control | [18] 94 % of control | [14] 93 % of control and 90 % of control

O=C(O)c1nsnc1C(=O)O
inactive: [19] 102 % of control | [20] 103 % of control

Cn1c(=O)oc2ccccc2c1=O
inactive: [4] 98 % of control | [6] 97 % of control | [8] 109 % of control

CCN(CC)CCOc1ccc(/C(=C(\Cl)c2ccccc2)c2ccccc2)cc1
inactive: dose: 6.25 mg/kg/injection, schedule: Q04DX002 (ip), vehicle: saline 118 % of control | dose: 12.5 mg/kg/injection, schedule: Q04DX002 (ip), vehicle: saline 118 % of control | dose: 25.0 mg/kg/injection, schedule: Q04DX002 (ip), vehicle: saline 124 % of control | dose: 50.0 mg/kg/injection, schedule: Q04DX002 (ip), vehicle: saline 121 % of control and 124 % of control | dose: 100.0 mg/kg/injection, schedule: Q04DX002 (ip), vehicle: saline 96 % of control

Cc1cc(C(=O)NN)c(C#N)c(=O)[nH]1
inactive: [9] 93 % of control | [10] 95 % of control | [11] 97 % of control

CCC(C)COC(=O)Nc1cccc(Cl)c1 (centres undefined)
inactive: [9] 102 % of control | [10] 107 % of control | [11] 105 % of control

NC(=O)NC(=O)C1C2CC3OC(=O)C1C3C2 (centres undefined)
inactive: [4] 93 % of control | [6] 93 % of control | [8] 98 % of control

CCN(CC)C(=S)SCn1nc(Cl)c2ccc([N+](=O)[O-])cc21
inactive: [21] 98 % of control | [19] 98 % of control | [20] 91 % of control

C=CCCCCCCCCCC
inactive: dose: 50.0 mg/kg/injection, schedule: Q04DX003 (ip), vehicle: Klucel (hydroxypropylcellulose) (HPC) 97 % of control | [21] 98 % of control | [22] 95 % of control | [19] 101 % of control | [23] 97 % of control | [20] 96 % of control

N#CC(CC(=O)O)=C(c1ccccc1)c1ccccc1
inactive: dose: 100.0 mg/kg/injection, schedule: Q01DX001 (ip), vehicle: Klucel (hydroxypropylcellulose) (HPC) 106 % of control | [17] 97 % of control and 104 % of control | [1] 96 % of control and 98 % of control | [22] 97 % of control | dose: 200.0 mg/kg/injection, schedule: Q01DX001 (ip), vehicle: Klucel (hydroxypropylcellulose) (HPC) 110 % of control | [18] 95 % of control and 101 % of control | [2] 95 % of control and 101 % of control | [23] 101 % of control

O=C1c2ccccc2CCCC1N1CCOCC1 (centres undefined)
inactive: [13] 95 % of control | [15] 94 % of control | [16] 87 % of control

O=C(O)c1c(F)c(F)c(Oc2c(F)c(F)c(F)c(Oc3c(F)c(F)c(C(=O)O)c(F)c3F)c2F)c(F)c1F
inactive: [17] 107 % of control | [22] 100 % of control | [18] 98 % of control | [23] 97 % of control

CCOC(=O)/C(Cc1ccc2ccccc2n1)=N/O
inactive: [24] 93 % of control | [3] 98 % of control | [4] 98 % of control | [5] 87 % of control | [6] 96 % of control | [8] 93 % of control

C1CCc2nnnn2CC1
inactive: dose: 6.25 mg/kg/injection, schedule: Q01DX009 (ip), vehicle: saline 111 % of control | dose: 12.5 mg/kg/injection, schedule: Q01DX009 (ip), vehicle: saline 101 % of control and 97 % of control | dose: 12.5 mg/kg/injection, schedule: Q04DX003 (ip), vehicle: saline 103 % of control | dose: 25.0 mg/kg/injection, schedule: Q01DX009 (ip), vehicle: saline 109 % of control and 90 % of control | dose: 25.0 mg/kg/injection, schedule: Q04DX003 (ip), vehicle: saline 101 % of control | [24] 96 % of control | dose: 50.0 mg/kg/injection, schedule: Q04DX003 (ip), vehicle: saline 95 % of control and 106 % of control

CCC(CCl)NC(=O)Nc1cccc2c1CCCC2 (centres undefined)
inactive: [22] 98 % of control | [23] 96 % of control | dose: 400.0 mg/kg/injection, schedule: Q04DX003 (ip), vehicle: Klucel (hydroxypropylcellulose) (HPC) 98 % of control

CC1C(OC(=O)Cc2ccccc2)=CCC2C1(C)CCC1C2(C)CCC2(C)C3CC(C)(C)CCC3(C)CCC12C (centres undefined)
inactive: [21] 98 % of control | [19] 104 % of control | [20] 104 % of control

O=[N+]([O-])c1ccc(CCCl)cc1
inactive: dose: 100.0 mg/kg/injection, schedule: Q04DX003 (ip), vehicle: acetone 102 % of control | dose: 200.0 mg/kg/injection, schedule: Q04DX003 (ip), vehicle: acetone 104 % of control | dose: 400.0 mg/kg/injection, schedule: Q04DX003 (ip), vehicle: acetone 92 % of control

CC(=O)OCC1OC(n2cnc3c(=O)[nH]nnc32)C(OC(C)=O)C1OC(C)=O (centres undefined)
inactive: dose: 100.0 mg/kg/injection, schedule: Q01DX005 (ip), vehicle: saline 96 % of control | [3] 94 % of control | dose: 200.0 mg/kg/injection, schedule: Q01DX005 (ip), vehicle: saline 104 % of control | [5] 92 % of control | [7] 99 % of control

O=[N+]([O-])c1ccccc1N=C=S
inactive: dose: 6.25 mg/kg/injection, schedule: Q01DX009 (ip), vehicle: gum acacia 102 % of control | dose: 12.5 mg/kg/injection, schedule: Q01DX009 (ip), vehicle: gum acacia 98 % of control | dose: 25.0 mg/kg/injection, schedule: Q01DX009 (ip), vehicle: gum acacia 97 % of control and 103 % of control | dose: 25.0 mg/kg/injection, schedule: Q04DX002 (ip), vehicle: gum acacia 98 % of control | dose: 50.0 mg/kg/injection, schedule: Q04DX002 (ip), vehicle: gum acacia 106 % of control | dose: 100.0 mg/kg/injection, schedule: Q04DX002 (ip), vehicle: gum acacia 103 % of control
